# Patent US20140221499A1, “NOVEL RODENT CONTROL AGENTS AND USES THEREOF” (priority 2011, published 2014)
# Tests used:
# [1] = tested on: mouse olfactory sensory neurons; experiment: Confocal calcium imaging of olfactory sensory neurons in tissue slices; assay type: cell-based
# Description: The mammalian olfactory system encodes odor identity using combinations of olfactory receptors (11). […] Here, we used a confocal imaging strategy to record cytosolic calcium transients of single sensory neurons in real time. Viability of analyzed neurons was determined after odor exposures by KCl-induced depolarization.
# Confocal calcium imaging of olfactory sensory neurons in tissue slices. Recordings were performed as described (Spehr M, et al. (2006) Essential role of the main olfactory system in social recognition of major histocompatibility complex peptide ligands. J Neurosci 26(7):1961-1970) with the following modifications. For calcium sensitive dye loading, slices of olfactory epithelium were incubated (30 min, 4° C.) in HEPES solution (in mM: 145 NaCl, 5 KCl, 1 CaCl2, 1 MgCl2, 10 HEPES; pH=7.3) containing Fluo-4/AM (2 μM; Molecular Probes). Slices were transferred to a recording chamber (Slice Mini Chamber, Luigs & Neumann, Ratingen, Germany) and visualized using a Leica DM6000CFS confocal fixed stage upright microscope (Leica Microsystems, Mannheim, Germany) equipped with an apochromatic water immersion objective (HC X APO L20x/1.0 W) and infrared-optimized differential interference contrast (DIC) optics. Slices were anchored via stainless steel wires with 0.1 mm lycra threads and continuously superfused with HEPES-buffered solution. Changes in cytosolic calcium were monitored over time at 1.0 Hz frame rate. Stimulus application as well as solution exchange during inter-stimulus intervals was achieved by a custom-made, pressure-driven focal application device consisting of a software-controlled valve bank connected to a 7-in-1 ‘perfusion pencil’. Rhodamine application controlled for uniform flow and even stimulus application throughout the epithelial sensory surface. Offline analysis of time-lapse experiments was performed using LAS-AF software (Leica). All cells in a given field of view were marked as individual regions of interest (ROIs), and the relative fluorescence intensity for each ROI was calculated and processed as a function of time.
# [2] = tested on: corticosterone levels in rat plasma; experiment: Plasma corticosterone assay after odor exposure; assay type: in vivo; conditions: 30 min exposure, 10% amine or 2% TMT, 1 ml, ±SEM
# Description: Avoidance to 2-phenylethylamine in rats was associated with acute changes in circulating levels of the stress hormone corticosterone.
# Plasma corticosterone assay. […] Corticosterone levels were measured in duplicate using a competitive radioactive binding assay as described previously (Pryce C R, Bettschen D, Bahr N I, & Feldon J (2001) Comparison of the effects of infant handling, isolation, and nonhandling on acoustic startle, prepulse inhibition, locomotion, and HPA activity in the adult rat. Behav Neurosci 115(1):71-83).
compound,measurement,setting,value
NCCc1ccccc1 [2-phenylethylamine],activation of olfactory sensory neurons,[1]; dorsal and ventral olfactory epithelium,activated a subset of KCl-responsive olfactory sensory neurons
same,2-phenylethylamine-responsive neurons activated by all four test stimuli,[1]; dorsal olfactory epithelium,30/52
same,2-phenylethylamine-responsive neurons distinguishing lion and giraffe urine and not responding to benzylamine,[1]; of 2-phenylethylamine-responsive neurons (13/52),25%
same,2-phenylethylamine-responsive neurons distinguishing lion and giraffe urine and not responding to benzylamine,[1]; of all dorsal KCl-responsive neurons (13/1268),~1%
same,plasma levels of corticosterone,[2],194 ± 18 ng/mL
